Measured values as given in patent US8809372B2, “Pyridine derivatives” (Endo Pharmaceuticals, Inc., priority 2011, dated 2014).

Experiments:
[1] = target: T1, rat CYP17 (rat testicular microsomes) (Rattus norvegicus, UniProt P11715); experiment: CYP17 inhibition assay in rat testicular microsomes; format: biochemical
T1 construct: Rat testis tissue was collected and disrupted with 30 strokes of a glass homogenizer; from tissue; host or cells: rat testis (microsomes)
T1 sequence (P11715 1-507): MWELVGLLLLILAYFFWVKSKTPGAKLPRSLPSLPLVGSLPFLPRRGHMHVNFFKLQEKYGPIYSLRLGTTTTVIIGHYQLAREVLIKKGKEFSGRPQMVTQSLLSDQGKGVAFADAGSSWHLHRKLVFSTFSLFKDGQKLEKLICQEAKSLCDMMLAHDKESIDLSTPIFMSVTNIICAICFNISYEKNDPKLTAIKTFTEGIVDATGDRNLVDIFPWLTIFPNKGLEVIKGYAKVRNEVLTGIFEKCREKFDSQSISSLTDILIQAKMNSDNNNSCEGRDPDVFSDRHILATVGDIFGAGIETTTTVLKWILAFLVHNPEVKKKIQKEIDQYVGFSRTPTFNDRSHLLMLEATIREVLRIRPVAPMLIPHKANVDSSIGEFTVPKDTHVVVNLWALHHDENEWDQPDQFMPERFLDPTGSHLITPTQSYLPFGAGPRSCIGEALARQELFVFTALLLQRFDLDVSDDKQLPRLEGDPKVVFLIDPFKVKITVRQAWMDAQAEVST
Procedure: CYP17 Inhibition Assay in Rat Testicular Microsomes (Rat CYP17) or Yeast Microsome Overexpressing Human CYP17
1. NADPH (Sigma): A working stock was prepared by adding 25 μL of 6.5 mM NADPH in each tube. The final concentration of NADPH used in the assay was 325 μM.
2. Potassium Phosphate Buffer: One molar (1M) solutions of K2HPO4 and KH2PO4 were prepared. Eight mL of the 1 M KH2PO4 and 1.98 mL of the 1 M K2HPO4 were combined and the pH was adjusted to 7.4.
3. ^3H3-17α-hydroxypregnenolone (American Radiolabeled Chemicals, Inc., stock 1 μCi/μL): A 1:1 dilution of ^3H3-17α-hydroxypregnenolone in ethanol was prepared by combining 100 μL ^3H3-17α-hydroxypregnenolone+100 μL ethanol for one complete 96 well plate. For the reaction, 2 μL of the diluted ^3H3-17α-hydroxypregnenolone was added in each tube, i.e., 1 μCi/reaction. 4. Microsome Isolation Buffer: The microsome isolation buffer was prepared by combining 250 mM Sucrose, 5 mM EDTA, 10 mM Tris HCl, 4 mM DTT, and adjusting to pH 7.4. 5. TEG Buffer: The TEG buffer was prepared by combining 50 mM Tris HCl, 1 mM EDTA, and 20% Glycerol. 6. Rat Testicular Microsomes: Rat testis tissue was collected and disrupted with 30 strokes of a glass homogenizer on ice with 250 μL of microsome isolation buffer, followed by centrifugation at 10,000 g for 10 minutes at 4° C. The supernatant was collected and centrifuged at 100,000 g for 45 minutes at 4° C. The pellet was dissolved in TEG Buffer and the protein was quantified. The homogenized microsome samples were then frozen at −80° C. • 7. Yeast Microsomes which overexpress the human CYP17 enzyme were obtained from Premas Biotech, India.
Potassium phosphate buffer (470 μL) was prepared as described above and was added to each well of a deep well plate. The test compound was diluted using a TECAN liquid handler and 5 μL of diluted compound was transferred to each well (96 deep well/1 mL). A solution (25 μL) of 6.5 mM NADPH was added (final concentration of 325 μM in the assay). ^3H3-17α-hydroxypregnenolone (2 μL of the working stock) was added to each tube. The plates were then pre-incubated for 15 minutes at 37° C. Following the pre-incubation, either 5 μL rat testicular microsomes (150-160 μg) or 5 μL of yeast microsomes expressing human CYP17 (1.7 pmol), was added. Incubation was at 37° C. for 60 minutes in the presence of oxygen. The plates were then placed in ice and chloroform (500 μL) was added, mixed well and incubated at 4° C. for 20 minutes. The plates were then centrifuged at 1000 rpm for 15 minutes at 4° C.
A portion (300 μL) of the aqueous solution was collected and mixed with a 5% aqueous suspension of activated charcoal (300 μL). The plates were then incubated at 4° C. for 30 minutes, after which the plates were centrifuged at 1000 rpm for 15 minutes at 4° C. From this, 125 μL of the aqueous solution was collected and plated into a 96 well plate. Microscint™ 40 [125 μL, Perkin-Elmer; containing a mixture of a polymer based on alkylphenolethoxylate (20-40%), diethanolamine-phosphoric acid ester ammonium salt (10-20%), sodium dioctyl sulphosuccinate (2.5-10%), triethyl phosphate (2.5-10%), 3,6-dimethyl-4-octyne-3,6-diol (≦2.5%), a polymer based on nonylphenolethoxylate (≦2.5%), diisopropyl naphthalene isomers (40-60%), 2,5-diphenyloxazole (≦2.5%), and 9,10-dimethylanthracene] was added and mixed well. After 30 minutes of incubation, the samples were analyzed with a MicroBeta® Trilux microplate liquid scintillation counter and luminometer (Perkin-Elmer).

[2] = target: T2, human CYP17 in H295R adrenocortical carcinoma cells (Homo sapiens, UniProt P05093); experiment: Cell-based human CYP17 inhibition assay, H295R cells; conditions: 16 hours, read-out: CYP17 (human H295R adrenal cells)
T2 construct: H295R Adrenocortical carcinoma cells [NCI-H295A, ATCC Number CRL-2128, American Type Culture Collection; host or cells: H295R adrenocortical carcinoma cells
T2 sequence (P05093 1-508): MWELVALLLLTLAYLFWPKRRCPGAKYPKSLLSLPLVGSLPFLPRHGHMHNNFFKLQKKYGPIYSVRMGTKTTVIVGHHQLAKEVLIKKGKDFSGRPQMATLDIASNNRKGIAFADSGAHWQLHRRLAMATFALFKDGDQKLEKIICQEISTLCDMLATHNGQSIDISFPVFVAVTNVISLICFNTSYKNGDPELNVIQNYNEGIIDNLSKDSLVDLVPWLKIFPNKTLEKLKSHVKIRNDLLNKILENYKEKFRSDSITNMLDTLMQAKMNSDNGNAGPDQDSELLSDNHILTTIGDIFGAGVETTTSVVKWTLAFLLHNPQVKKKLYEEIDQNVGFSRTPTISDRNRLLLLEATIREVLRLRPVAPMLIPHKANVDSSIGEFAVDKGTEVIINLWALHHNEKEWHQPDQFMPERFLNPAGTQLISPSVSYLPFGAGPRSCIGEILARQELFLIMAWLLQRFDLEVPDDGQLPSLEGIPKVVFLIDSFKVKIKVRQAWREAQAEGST
Procedure: Cell-Based Human CYP17 Inhibition Assay
1. H295R Adrenocortical Carcinoma Cells and Growth Media: The media for the H295R Adrenocortical carcinoma cells [NCI-H295A, ATCC Number CRL-2128, American Type Culture Collection, Manassas, Va., US] (500 mL) was a DMEM:F12 Mix 1:1 with 5% (2 mL) BD Nu Serum; 1% (5 mL) ITS+Premix [BD Biosciences] and 1% Penstrep. 2. LNCap-CYP17 Cells and Growth Media: Full length hCYP17a1 gene (NCBI Reference Sequence: NM_000102.3) was cloned in pcDNA3.1(+) vector between HindIII and XhoI site. The pcDNA3.1(+) vector contains the Neomycin resistance gene and was used for selection of stable cell line. The hCYP17a1 containing pcDNA3.1(+) was transfected into LNCap cells to create the LNCap-CYP17 cell line. The media for the LNCaP-CYP17 cells was RPMI 1640, 10% FBS, 1% PenStrep, Geneticin 400 μg/mL.
The H295R cells or LNCaP-hCYP17 cells were subcultured and 30,000 cells per well were seeded in a poly-d lysine plate and incubated overnight at 37° C. The next day the media was removed and 200 μL of fresh media with ^3H3-17α-hydroxy-pregnenolone (1:1000) was added. 50 μL of serially diluted compounds from a 5× plate (5 times the final desired concentration) was added. The working concentration range for active, new compounds started from a high concentration of 10 μM with 3-fold serial dilutions generating up to 10 concentrations. The serial dilution in the 100× plate (in DMSO) and the stamping of a 5× plate (in media) from the 100× plate were carried out using a TECAN liquid handling device.
The plates were incubated overnight (16 hours) at 37° C. After 16 hours, the media was removed (approximately 220 μL) and an equal amount of chloroform was added, mixed and incubated for 30 minutes at 4 degrees. The plate was centrifuged at 4000 rpm for 15 minutes at 4° C., following which the top aqueous layer was carefully removed and added into a new deep well plate. An equal volume of activated 5% charcoal was added, mixed and incubated for 30 minutes at 4° C. The plate was then centrifuged at 4000 rpm for 15 minutes at 4° C. and the top layer carefully separated, avoiding any charcoal contamination, and placed in a white, clear bottom plate (plate cat #3610, Corning Life Sciences). An equal volume of Microscint™ 40 was added and mixed well. Following the incubation for 30 minutes, readings for the radiotracer were taken using a Microbeta® trilux.

CCC(O)(c1ccncc1)c1nnc(-c2ccc(F)cc2)s1 (stereo not drawn) [Example 21, 1-(5-(4-fluorophenyl)-1,3,4-thiadiazol-2-yl)-1-(pyridin-4-yl)propan-1-ol]
IC50 [1]: < 50 nM
IC50 [2]: 201 to 10000 nM

CC(O)(c1ccncc1)c1cnc(-c2ccc(F)cc2)o1 (stereo not drawn) [Example 23, 1-(2-(4-Fluorophenyl)oxazol-5-yl)-1-(pyridin-4-yl)ethanol]
IC50 [1]: < 50 nM
IC50 [2]: 201 to 10000 nM

OC(c1ccncc1)c1cnc(-c2ccc(F)cc2)s1 (stereo not drawn) [Example 24, [2-(4-fluorophenyl)-1,3-thiazol-5-yl](pyridin-4-yl)methanol]
IC50 [1]: < 50 nM
IC50 [2]: 50 to 200 nM

OC1(c2cnc(-c3ccc(F)cc3)s2)CCCc2cnccc21 (stereo not drawn) [Example 25, 5-(2-(4-fluorophenyl)thiazol-5-yl)-5,6,7,8-tetrahydroisoquinolin-5-ol]
IC50 [1]: < 50 nM
IC50 [2]: 201 to 10000 nM

CC(O)(c1ccncc1)c1cnc(-c2ccc(C(F)(F)F)cc2)s1 (stereo not drawn) [Example 26, 1-(Pyridin-4-yl)-1-(2-(4-(trifluoromethyl)phenyl)thiazol-5-yl)ethanol]
IC50 [1]: < 50 nM
IC50 [2]: 50 to 200 nM

CC(O)(c1ccncc1)c1cnc(-c2ccc(F)cc2F)s1 (stereo not drawn) [Example 27, 1-[2-(2,4-Difluoro-phenyl)-thiazol-5-yl]-1-pyridin-4-yl-ethanol]
IC50 [1]: < 50 nM
IC50 [2]: < 50 nM

CC(O)(c1ccncc1)c1cnc(-c2ccc(Cl)cc2)s1 (stereo not drawn) [Example 28, 1-(2-(4-Chlorophenyl)thiazol-5-yl)-1-(pyridin-4-yl)ethanol]
IC50 [1]: < 50 nM
IC50 [2]: < 50 nM

CC(O)(c1ccncc1)c1noc(-c2ccc(F)cc2)n1 (stereo not drawn) [Example 29, 1-(5-(4-Fluorophenyl)-1,2,4-oxadiazol-3-yl)-1-(pyridin-4-yl)ethanol]
IC50 [1]: < 50 nM
IC50 [2]: 201 to 10000 nM

CC(O)(c1ccncc1)c1cnc(-c2ccc(C#N)c(C(F)(F)F)c2)s1 (stereo not drawn) [Example 30, 4-(5-(1-Hydroxy-1-(pyridin-4-yl)ethyl)thiazol-2-yl)-2-(trifluoro-methyl)benzonitrile]
IC50 [1]: < 50 nM
IC50 [2]: 50 to 200 nM

CC(O)(c1ccncc1)c1nnc(-c2ccc(F)cc2)o1 (stereo not drawn) [Example 31, 1-(5-(4-Fluorophenyl)-1,3,4-oxadiazol-2-yl)-1-(pyridin-4-yl)ethanol]
IC50 [1]: 50 to 200 nM
IC50 [2]: 201 to 10000 nM

CC(O)(c1ccncc1)c1cc(-c2ccc(F)cc2)no1 (stereo not drawn) [Example 32, 1-[3-(4-Fluoro-phenyl)-isoxazol-5-yl]-1-pyridin-4-yl-ethanol]
IC50 [1]: < 50 nM
IC50 [2]: 50 to 200 nM

CC(C)C(O)(c1ccncc1)c1cnc(-c2ccc(F)cc2)s1 (stereo not drawn) [Example 33, 1-[2-(4-Fluoro-phenyl)-thiazol-5-yl]-2-methyl-1-pyridin-4-yl-propan-1-ol]
IC50 [1]: < 50 nM
IC50 [2]: < 50 nM

CC(O)(c1ccncc1)c1ccc(-c2ccc(F)cc2)o1 (stereo not drawn) [Example 37, 1-(5-(4-fluorophenyl)furan-2-yl)-1-(pyridin-4-yl)ethanol]
IC50 [1]: 50 to 200 nM
IC50 [2]: 50 to 200 nM

CC(O)(c1ccncc1)c1cnc(-c2ccc(C#N)c(Cl)c2)s1 (stereo not drawn) [Example 38, 2-chloro-4-(5-(1-hydroxy-1-(pyridin-4-yl)ethyl)thiazol-2-yl)benzonitrile]
IC50 [1]: < 50 nM
IC50 [2]: 50 to 200 nM

CC(O)(c1ccncc1)c1cnc(-c2ccc(Cl)c(C(F)(F)F)c2)s1 (stereo not drawn) [Example 39, 1-(2-(4-chloro-3-(trifluoromethyl)phenyl)thiazol-5-yl)-1-(pyridin-4-yl)ethanol]
IC50 [1]: < 50 nM
IC50 [2]: 50 to 200 nM

CC(O)(c1ccncc1)c1cnc(-c2ccc(F)c(C#N)c2)s1 (stereo not drawn) [Example 40, 2-fluoro-5-(5-(1-hydroxy-1-(pyridin-4-yl)ethyl)thiazol-2-yl)benzonitrile]
IC50 [1]: < 50 nM
IC50 [2]: < 50 nM

CC(O)(c1ccncc1)c1cnc(-c2ccc(C(F)(F)F)c(Cl)c2)s1 (stereo not drawn) [Example 41, 1-(2-(3-chloro-4-(trifluoromethyl)phenyl)thiazol-5-yl)-1-(pyridin-4-yl)ethanol]
IC50 [1]: < 50 nM
IC50 [2]: < 50 nM

CC(O)(c1ccncc1)c1cnc(-c2ccc(Cl)c(C#N)c2)s1 (stereo not drawn) [Example 42, 2-chloro-5-(5-(1-hydroxy-1-(pyridin-4-yl)ethyl)thiazol-2-yl)benzonitrile]
IC50 [1]: < 50 nM
IC50 [2]: < 50 nM
